Assay results reported in BindingDB's records for doi:10.3109/14756366.2011.599323 (China Pharmaceutical University, 2012).
Where a SMILES comes first, the peptide text is derived from it.

How the values were obtained:
Neutrophil collagenase = Neutrophil collagenase (Homo sapiens, UniProt P22894); assay: MMP-8 Activity Assay; conditions: pH 7.4; 37 °C
Method: Recombinant human MMP-8 was purchased as an active form enzyme (Sino Biological Inc.). The enzyme activity was detected with the same fluorogenic peptidesubstrate as that for MMP-9. All MMP-8 assays were performed at 37°C in 100 μl assay buffer with 20 μl recombinant human MMP-8 (2 ng/μl). The final substrateconcentration was 10 μM.

[1] = target: Matrix metalloproteinase-9 (Homo sapiens, UniProt P14780); assay: MMP-9 Activity Assay; conditions: pH 7.4; 37 °C
Method: Recombinant human MMP-9 was expressed in Sf9 insect cells and purified by gelatin-Sepharose affinity chromatography as described previously16,17. It was activated with 0.01 μM of the catalytic domain of MMP-3 (cd-MMP-3, Calbiochem) in assay buffer (100 mM Tris/HCl, pH 7.4, 100 mM NaCl, 10 mM CaCl2 and 0.01% Tween-20) at 92 ng/μl (1 μM) as a stock solution as described8. Hydrolysis of the substrate Mca-Pro-Leu-Gly-Leu-Dpa-Ala-Arg-NH2 (substrate I, R&D Systems Europe Ltd) was monitored by measuring the increase in fluorescence (excitation wavelength = 328 nm, emission wavelength = 392 nm) [Whittaker et al., Chem. Rev., 99:2735-2776]. All assays were performed at 37°C in 100 μl assay buffer. The reaction was started by adding 10 μl gelatinase B stock solution (0.92 ng/μl) to a 100 μl reaction system with a substrate concentration of 10 μM, after which the rate of substrate hydrolysis was monitored.

Stromelysin-1 = Stromelysin-1 (Homo sapiens, UniProt P08254); assay: MMP-3 Activity Assay; conditions: pH 7.4; 37 °C
Method: The activity of recombinant human MMP-3 (catalytic domain, Calbiochem) was detected with the substrate Mca-Arg-Pro-Lys-Pro-Val-Glu-Nval-Trp-Arg-Lys(Dnp)-NH2 (substrate II, R&D Systems Europe Ltd) (excitation wavelength = 320 nm, emission wavelength = 405 nm). These assays were performed at 37°C in 100 μl assay buffer. The reaction was started by adding 10 μl MMP-3 stock solution (1 ng/μl) to a 100 μl reaction system with a final substrate concentration of 10 μM, after which the rate of substrate hydrolysis was monitored.

[2] = target: Disintegrin and metalloproteinase domain-containing protein 17 (Homo sapiens, UniProt P78536); assay: TACE Activity Assay; conditions: pH 9.0
Method: TACE was purchased as an active form enzyme (R&D Systems). Hydrolysis of the TACE-substrate Mca-Pro-Leu-Ala-Gln-Ala-Val-Dpa-Arg-Ser-Ser-Ser-Arg-NH (substrateIII, R&D Systems Europe Ltd) was monitored by measuring the increase in fluorescence (excitation wavelength = 320 nm, emission wavelength = 405 nm). TACEassays were performed at 37°C in 100 μl assay buffer. The reaction was started by adding 4 μl TACE stock solution (1 ng/μl) to a 100 μl reaction system with a final substrate concentration of 10 μM, after which the rate of substrate hydrolysis was monitored.

Sequence of Neutrophil collagenase (P22894 whole entry): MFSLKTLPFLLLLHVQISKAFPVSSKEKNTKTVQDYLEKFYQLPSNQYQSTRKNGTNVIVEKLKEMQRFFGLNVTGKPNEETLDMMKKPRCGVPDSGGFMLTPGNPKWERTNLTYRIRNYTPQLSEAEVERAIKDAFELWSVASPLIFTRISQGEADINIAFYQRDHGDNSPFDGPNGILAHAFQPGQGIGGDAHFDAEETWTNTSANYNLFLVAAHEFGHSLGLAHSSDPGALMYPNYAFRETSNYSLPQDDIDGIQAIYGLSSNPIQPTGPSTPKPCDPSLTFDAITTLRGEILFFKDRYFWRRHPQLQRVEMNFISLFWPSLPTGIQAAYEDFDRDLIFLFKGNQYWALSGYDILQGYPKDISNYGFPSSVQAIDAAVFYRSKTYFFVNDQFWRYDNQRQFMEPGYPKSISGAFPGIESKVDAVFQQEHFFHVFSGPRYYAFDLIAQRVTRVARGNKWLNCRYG
Sequence of Matrix metalloproteinase-9 (P14780 whole entry, the tested form may be a part): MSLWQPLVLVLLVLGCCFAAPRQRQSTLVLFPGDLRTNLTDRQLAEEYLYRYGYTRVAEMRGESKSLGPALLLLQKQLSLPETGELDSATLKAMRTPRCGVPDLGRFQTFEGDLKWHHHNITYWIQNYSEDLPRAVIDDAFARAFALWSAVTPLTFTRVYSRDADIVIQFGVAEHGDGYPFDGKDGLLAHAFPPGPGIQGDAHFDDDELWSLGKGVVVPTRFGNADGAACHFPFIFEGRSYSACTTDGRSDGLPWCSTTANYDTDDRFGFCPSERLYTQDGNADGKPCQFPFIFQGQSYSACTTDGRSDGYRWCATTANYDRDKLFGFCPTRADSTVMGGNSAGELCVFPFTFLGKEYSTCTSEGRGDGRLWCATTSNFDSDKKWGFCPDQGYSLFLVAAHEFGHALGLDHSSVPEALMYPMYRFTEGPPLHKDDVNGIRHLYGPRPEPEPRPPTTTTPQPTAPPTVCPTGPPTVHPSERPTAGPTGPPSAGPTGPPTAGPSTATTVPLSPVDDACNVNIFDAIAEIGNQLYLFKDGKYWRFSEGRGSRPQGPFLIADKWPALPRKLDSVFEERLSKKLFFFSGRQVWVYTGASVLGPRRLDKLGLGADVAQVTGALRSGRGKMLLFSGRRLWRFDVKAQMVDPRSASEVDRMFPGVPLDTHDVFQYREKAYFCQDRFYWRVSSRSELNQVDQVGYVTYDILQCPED
Sequence of Disintegrin and metalloproteinase domain-containing protein 17 (P78536 whole entry, the tested form may be a part): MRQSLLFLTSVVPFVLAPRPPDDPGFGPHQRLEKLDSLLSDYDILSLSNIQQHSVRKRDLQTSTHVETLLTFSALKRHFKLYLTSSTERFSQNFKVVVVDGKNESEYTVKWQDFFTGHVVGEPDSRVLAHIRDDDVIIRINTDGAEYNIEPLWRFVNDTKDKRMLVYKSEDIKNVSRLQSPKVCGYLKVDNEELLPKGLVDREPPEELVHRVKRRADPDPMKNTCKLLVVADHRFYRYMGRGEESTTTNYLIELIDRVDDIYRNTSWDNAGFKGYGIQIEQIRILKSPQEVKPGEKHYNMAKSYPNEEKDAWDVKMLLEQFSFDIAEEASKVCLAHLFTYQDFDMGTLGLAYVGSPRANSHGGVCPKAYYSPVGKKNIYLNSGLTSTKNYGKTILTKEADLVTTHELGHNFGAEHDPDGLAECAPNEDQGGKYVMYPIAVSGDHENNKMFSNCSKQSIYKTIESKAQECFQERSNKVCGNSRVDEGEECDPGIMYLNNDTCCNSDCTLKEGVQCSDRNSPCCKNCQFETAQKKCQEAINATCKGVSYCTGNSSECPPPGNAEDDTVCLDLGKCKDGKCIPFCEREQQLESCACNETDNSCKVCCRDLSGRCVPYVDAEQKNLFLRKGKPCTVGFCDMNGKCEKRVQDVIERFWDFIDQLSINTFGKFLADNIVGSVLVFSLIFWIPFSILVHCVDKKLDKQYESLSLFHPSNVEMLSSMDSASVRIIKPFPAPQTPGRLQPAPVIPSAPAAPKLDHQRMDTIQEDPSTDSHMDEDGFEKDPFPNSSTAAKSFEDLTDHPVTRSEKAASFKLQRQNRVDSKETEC
Sequence of Stromelysin-1 (P08254 whole entry, the tested form may be a part): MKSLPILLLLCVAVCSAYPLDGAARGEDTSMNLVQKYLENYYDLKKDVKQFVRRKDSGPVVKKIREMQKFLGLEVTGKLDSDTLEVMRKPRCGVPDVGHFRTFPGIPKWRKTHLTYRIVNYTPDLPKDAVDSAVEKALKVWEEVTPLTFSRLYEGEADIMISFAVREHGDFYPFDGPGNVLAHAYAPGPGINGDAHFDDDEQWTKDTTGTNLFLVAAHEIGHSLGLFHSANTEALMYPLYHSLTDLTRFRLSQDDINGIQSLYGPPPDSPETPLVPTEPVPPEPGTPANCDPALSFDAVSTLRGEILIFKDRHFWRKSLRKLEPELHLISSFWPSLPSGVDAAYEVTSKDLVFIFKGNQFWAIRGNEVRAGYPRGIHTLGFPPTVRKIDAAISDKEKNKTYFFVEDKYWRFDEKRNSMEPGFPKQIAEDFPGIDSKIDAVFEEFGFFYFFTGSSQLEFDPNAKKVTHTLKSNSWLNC

| Compound | IC50 (Neutrophil collagenase) | IC50 [1] | IC50 (Stromelysin-1) | IC50 [2] |
| --- | --- | --- | --- | --- |
| N=C(N)NCCC[C@H](NC(=O)[C@H](Cc1ccc(-c2ccccc2)cc1)NC(=O)[C@@H](CS)NC(=O)[C@@H](N)CCCNC(=N)N)C(=O)O [Arg-(D-Cys)-Bip-Arg] (HELM PEPTIDE1{R.[dC].[O=C([C@H](Cc1ccc(-c2ccccc2)cc1)N[*:1])[*:2]].R}$$$$V2.0) | 0.9 µM | 0.9 µM | 22.5 µM | 2.5 µM |
| N=C(N)NCCC[C@H](N)C(=O)N[C@@H](CS)C(=O)N[C@H](Cc1ccc(-c2ccccc2)cc1)C(=O)N[C@H](CCCNC(=N)N)C(=O)O [Arg-Cys-(D-Bip)-(D-Arg)] (HELM PEPTIDE1{R.C.[O=C([C@@H](Cc1ccc(-c2ccccc2)cc1)N[*:1])[*:2]].[dR]}$$$$V2.0) | 2.3 µM | 0.75 µM | 19.5 µM | 20 µM |
